Laboratory results taken from ChEMBL document CHEMBL3616467, “One-pot synthesis of new triazole--Imidazo[2,1-b][1,3,4]thiadiazole hybrids via click chemistry and evaluation of their antitubercular activity” (Bioorg Med Chem Lett, 2015).
In brackets after ≈: the same amount, converted by molar mass.

Assays:
[1] = tested on: Mycobacterium tuberculosis; experiment: Antitubercular activity against Mycobacterium tuberculosis H37Rv ATCC 27294 after 28 days by agar dilution method; format: functional; details: H37Rv ATCC 27294, 672 h
[2] = Cytotoxicity against mouse NIH/3T3 cells assessed as growth inhibition at 50 ug/ml after 48 hrs by MTT assay relative to control; format: cell-based, NIH3T3; details: read-out: GI

Row | SMILES | MIC [1] [µg/mL] | inhibition at 48 h, 50 ug/ml [2] [%]
1 | COc1ccc(-c2nc3sc(C)nn3c2COCc2cn(Cc3ccccc3F)nn2)cc1 | 25 (≈ 53.8 µM) | –
2 | CCOC(=O)Cn1cc(COCc2c(-c3ccc(OC)cc3)nc3sc(C)nn23)nn1 | 50 (≈ 113 µM) | –
3 | CCn1cc(COCc2c(-c3ccc(OC)cc3)nc3sc(C)nn23)nn1 | 25 (≈ 65 µM) | –
4 | COc1ccc(-c2nc3sc(C)nn3c2COCc2cn(CC#N)nn2)cc1 | 50 (≈ 126 µM) | –
5 | COc1ccc(-c2nc3sc(C)nn3c2COCc2cn(Cc3ccc(F)cc3)nn2)cc1 | 12.5 (≈ 26.9 µM) | 19.1
6 | COc1ccc(-c2nc3sc(C)nn3c2COCc2cn(Cc3ccccc3)nn2)cc1 | 3.12 (≈ 7 µM) | 22.7
7 | CCOC(=O)Cn1cc(COCc2c(-c3ccc(C)cc3)nc3sc(C)nn23)nn1 | 50 (≈ 117 µM) | –
8 | CCn1cc(COCc2c(-c3ccc(C)cc3)nc3sc(C)nn23)nn1 | 25 (≈ 67.8 µM) | –
9 | Cc1ccc(-c2nc3sc(C)nn3c2COCc2cn(CC#N)nn2)cc1 | 25 (≈ 65.9 µM) | –
10 | Cc1ccc(-c2nc3sc(C)nn3c2COCc2cn(Cc3ccccc3F)nn2)cc1 | 50 (≈ 111 µM) | –
11 | Cc1ccc(-c2nc3sc(C)nn3c2COCc2cn(Cc3ccc(F)cc3)nn2)cc1 | 50 (≈ 111 µM) | –
12 | Cc1ccc(-c2nc3sc(C)nn3c2COCc2cn(Cc3ccccc3)nn2)cc1 | 25 (≈ 58.1 µM) | –
13 | CCOC(=O)Cn1cc(COCc2c(-c3ccc(Cl)cc3)nc3sc(C)nn23)nn1 | 12.5 (≈ 28 µM) | 28.2
14 | CCn1cc(COCc2c(-c3ccc(Cl)cc3)nc3sc(C)nn23)nn1 | 3.12 (≈ 8.04 µM) | 20.1
15 | Cc1nn2c(COCc3cn(C(C)C)nn3)c(-c3ccc(Cl)cc3)nc2s1 | 50 (≈ 124 µM) | –
16 | Cc1nn2c(COCc3cn(CC#N)nn3)c(-c3ccc(Cl)cc3)nc2s1 | 6.25 (≈ 15.6 µM) | 27.3
17 | Cc1nn2c(COCc3cn(Cc4ccccc4F)nn3)c(-c3ccc(Cl)cc3)nc2s1 | 50 (≈ 107 µM) | –
18 | Cc1nn2c(COCc3cn(Cc4ccc(F)cc4)nn3)c(-c3ccc(Cl)cc3)nc2s1 | 25 (≈ 53.3 µM) | –
19 | Cc1nn2c(COCc3cn(Cc4ccccc4)nn3)c(-c3ccc(Cl)cc3)nc2s1 | 25 (≈ 55.4 µM) | –
20 | Cc1nn2c(COCc3cn(CC(=O)O)nn3)c(-c3ccc(Cl)cc3)nc2s1 | 50 (≈ 119 µM) | –
21 | CC[C@@H](CO)NCCN[C@@H](CC)CO [ETHAMBUTOL] | 3.12 (≈ 15.3 µM) | –
22 | NNC(=O)c1ccncc1 [ISONIAZID] | 0.1 (≈ 0.729 µM) | –
23 | NC(=O)c1cnccn1 [PYRAZINAMIDE] | 50 (≈ 406 µM) | –
